Assay results: US11118200B2, “Method for preparing amines from aldehydes and ketones by biocatalysis” (COMMISSARIAT A L'ENERGIE ATOMIQUE ET AUX ENERGIES …, priority 2017, dated 2021)
Marks after values point to notes of the source that are not given here. Values belong to the compound of their own block, whether it stands above or below them.

Tests used:
[1] = tested on: enzyme of SEQ ID NO:3; experiment: Screening of carbonyl-containing compounds with ammonia as amine source (specific activity, absorbance at 340 nm); type: biochemical, Microbacterium sp. MA1; conditions: for Specific activity, SEQ ID NO: 3: 10 mM of carbonyl-containing compound, ammonia as amine source
Procedure: (§1) All the reactions were conducted at 25° C. in spectrophotometric cell (10 mm light path). To a mixture of ammonium formate buffer (2 M NH4HCO2/NH4OH, pH 9.5), NADH or NADPH (0.2 mM) and an appropriate amount of purified enzyme was added.

[2] = tested on: enzyme of SEQ ID NO:1; experiment: as above; type: biochemical, Mycobacterium smegmatis; conditions: for Specific activity, SEQ ID NO: 1: 10 mM of carbonyl-containing compound, ammonia as amine source
Procedure: as §1

[3] = tested on: enzyme of SEQ ID NO:2; experiment: as above; type: biochemical, Cystobacter fuscus DSM 2262; conditions: for Specific activity, SEQ ID NO: 2: 10 mM of carbonyl-containing compound, ammonia as amine source
Procedure: as §1

[4] = target: PheDH-AmDH K77S/N276L (Pseudobacillus badius, UniProt Q59224, K78S/N277L); conditions: prior-art engineered enzyme; cited from earlier work
[5] = tested on: enzyme of SEQ ID NO:4; experiment: Screening of carbonyl-containing compounds with ammonia as amine source (specific activity, absorbance at 340 nm); type: biochemical, Aminomonas paucivorans DSM 12260; parameters: key to Detection of the expected compound, SEQ ID NO: 4: d: detected activity; nd: not detected activity; conditions: for Specific activity, SEQ ID NO: 4: 0.2 mM NADH (best of NADH/NADPH), 10 mM of carbonyl-containing compound; for Specific activity, SEQ ID NO: 4 / Detection of the expected compound, SEQ ID NO: 4: ammonia as amine source; for Detection of the expected compound, SEQ ID NO: 4: pH 9.5, 25° C.
Procedure: (§2) All the reactions were conducted at 25° C. in spectrophotometric cell (10 mm light path). To a mixture of ammonium formate buffer (2 M NH4HCO2/NH4OH, pH 9.5), NADH or NADPH (0.2 mM) and an appropriate amount of purified enzyme was added. Carbonyl-containing compound (5 or 10 mM) is then added to initiate the reaction (reaction final volume 100 μL). The initial slope measured at 340 nm determined the specific activity of the enzyme according to Beer-Lambert's law and the molar absorptivity of β-NADH (ϵ=6298 M^−1 cm^−1).

[6] = tested on: enzyme of SEQ ID NO:2; experiment: Screening of carbonyl-containing compounds with methylamine as amine source; type: biochemical, Cystobacter fuscus DSM 2262; conditions: preliminary
Procedure: as §2, with “of TRIS.HCl” for “of ammonium formate”, “buffer (50 mM,” for “buffer (2 M NH4HCO2/NH4OH,”, “NADH and” for “NADH or”, “NADPH (0.1 mM each), methylamine (500” for “NADPH (0.2”, “(5” for “(5 or 10”

[7] = tested on: enzyme of SEQ ID NO:3; experiment: as above; type: biochemical, Microbacterium sp. MA1; conditions: preliminary
Procedure: as §2, with “of TRIS.HCl” for “of ammonium formate”, “buffer (50 mM,” for “buffer (2 M NH4HCO2/NH4OH,”, “NADH and” for “NADH or”, “NADPH (0.1 mM each), methylamine (500” for “NADPH (0.2”, “(5” for “(5 or 10”

[8] = tested on: enzyme of SEQ ID NO:5; experiment: as above; type: biochemical, Mycobacterium vaccae ATCC 25954; conditions: preliminary
Procedure: as §2, with “of TRIS.HCl” for “of ammonium formate”, “buffer (50 mM,” for “buffer (2 M NH4HCO2/NH4OH,”, “NADH and” for “NADH or”, “NADPH (0.1 mM each), methylamine (500” for “NADPH (0.2”, “(5” for “(5 or 10”

[9] = tested on: enzyme of SEQ ID NO:1; experiment: as above; type: biochemical, Mycobacterium smegmatis; conditions: preliminary
Procedure: as §2, with “of TRIS.HCl” for “of ammonium formate”, “buffer (50 mM,” for “buffer (2 M NH4HCO2/NH4OH,”, “NADH and” for “NADH or”, “NADPH (0.1 mM each), methylamine (500” for “NADPH (0.2”, “(5” for “(5 or 10”

[10] = tested on: enzyme of SEQ ID NO:4; experiment: as above; type: biochemical, Aminomonas paucivorans DSM 12260; conditions: preliminary
Procedure: as §2, with “of TRIS.HCl” for “of ammonium formate”, “buffer (50 mM,” for “buffer (2 M NH4HCO2/NH4OH,”, “NADH and” for “NADH or”, “NADPH (0.1 mM each), methylamine (500” for “NADPH (0.2”, “(5” for “(5 or 10”

[11] = tested on: enzyme of SEQ ID NO:1; experiment: Reduction of cyclic imine substrates; type: biochemical, Mycobacterium smegmatis
[12] = tested on: enzyme of SEQ ID NO:3; experiment: Reduction of cyclic imine substrates; type: biochemical, Microbacterium sp. MA1
[13] = tested on: enzyme of SEQ ID NO:2; experiment: Reduction of cyclic imine substrates; type: biochemical, Cystobacter fuscus DSM 2262
[14] = tested on: enzyme of SEQ ID NO:4; experiment: Reduction of cyclic imine substrates; type: biochemical, Aminomonas paucivorans DSM 12260
[15] = 0.2 mM NADPH (best of NADH/NADPH)
[16] = 0.2 mM NADPH (best of NADH/NADPH), listed as drawing 134
[17] = 0.2 mM NADH (best of NADH/NADPH)
[18] = methylamine (500 mM) as amine source, NADH/NADPH (0.1 mM each), carbonyl-containing compound 5 mM
[19] = 0.2 mM NADH (best of NADH/NADPH), listed as drawing 150

Sequence of PheDH-AmDH K77S/N276L (Q59224 whole entry K78S/N277L): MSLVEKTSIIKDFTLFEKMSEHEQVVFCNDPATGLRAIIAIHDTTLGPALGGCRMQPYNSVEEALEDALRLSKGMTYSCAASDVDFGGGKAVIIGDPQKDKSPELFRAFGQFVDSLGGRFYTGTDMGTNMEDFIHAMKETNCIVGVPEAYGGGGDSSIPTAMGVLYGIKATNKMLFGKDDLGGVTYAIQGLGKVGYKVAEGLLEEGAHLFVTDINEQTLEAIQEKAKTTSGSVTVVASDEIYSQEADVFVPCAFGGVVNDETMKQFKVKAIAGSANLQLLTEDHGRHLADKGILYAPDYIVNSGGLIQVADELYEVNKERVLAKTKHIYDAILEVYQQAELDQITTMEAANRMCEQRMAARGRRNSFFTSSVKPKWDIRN

Structure (SMILES): CC1CCCC(=O)C1 (racemic) [3-methylcyclohexanone]
Specific activity, SEQ ID NO: 3 [1, 15]: 206.5 mU.mg^-1 | Specific activity, SEQ ID NO: 3 [1, 16]: 206.5^b mU.mg^-1 | Specific activity, SEQ ID NO: 1 [2, 15]: 160.9 mU.mg^-1 | Specific activity, SEQ ID NO: 1 [2, 16]: 160.9^b mU.mg^-1 | Specific activity, SEQ ID NO: 2 [3, 15]: 37.0^b mU.mg^-1 | specific activity of PheDH-AmDH K77S/N276L [4]: 41.1 mU·mg^−1

activity of enzyme of SEQ ID NO:3 towards the substrate (in words) ([1]; reductive amination): inactive | activity of enzyme of SEQ ID NO:1 towards the substrate (in words) ([2]; reductive amination): inactive | activity of enzyme of SEQ ID NO:4 towards the substrate (in words) ([5]; reductive amination): inactive | activity of enzyme of SEQ ID NO:2 towards the substrate (in words) ([3]; reductive amination): inactive
Structure (SMILES): CC(=O)CCC(=O)O [4-oxopentanoic acid]

Specific activity, SEQ ID NO: 3 [1, 15]: 324.4^b mU.mg^-1 | Specific activity, SEQ ID NO: 1 [2, 15]: 177.7^b mU.mg^-1 | Specific activity, SEQ ID NO: 2 [3, 15]: 42.4^b mU.mg^-1
Structure (SMILES): CC(=O)C(C)O (centres unmarked)

Specific activity, SEQ ID NO: 3 [1, 15]: 170.1^b mU.mg^-1 | Specific activity, SEQ ID NO: 1 [2, 17]: 85.2^a mU.mg^-1 | Specific activity, SEQ ID NO: 2 [3, 15]: 20.4^b mU.mg^-1
Structure (SMILES): CC1CCC(=O)CC1

Specific activity, SEQ ID NO: 3 [1, 17]: 159.4^a mU.mg^-1 | Specific activity, SEQ ID NO: 1 [2, 15]: 75.2^b mU.mg^-1 | Specific activity, SEQ ID NO: 2 [3, 17]: 231.9^a mU.mg^-1
Structure (SMILES): CCC(C)C=O (centres unmarked) [drawing 148]

Structure (SMILES): CC(C)C=O [2-methylpropanal]
Specific activity, SEQ ID NO: 2 [6, 18]: 150.2 mU.mg-^1 | activity of enzyme of SEQ ID NO:2 on the substrate with methylamine (in words) ([6]; methylamine as amine source): active | Specific activity, SEQ ID NO: 3 [1, 17]: 541.0 mU.mg^-1 | Specific activity, SEQ ID NO: 3 [1, 19]: 541.0^a mU.mg^-1 | Specific activity, SEQ ID NO: 3 [7, 18]: 851.3 mU.mg-^1 | activity of enzyme of SEQ ID NO:3 on the substrate with methylamine (in words) ([7]; methylamine as amine source): active | Specific activity, SEQ ID NO: 1 [2, 17]: 556.5 mU.mg^-1 | Specific activity, SEQ ID NO: 1 [2, 19]: 556.5^a mU.mg^-1 | Specific activity, SEQ ID NO: 5 [8, 18]: 262.6 mU.mg-^1 | activity of enzyme of SEQ ID NO:5 on the substrate with methylamine (in words) ([8]; methylamine as amine source): active | Specific activity, SEQ ID NO: 2 [3, 17]: 119.2^a mU.mg^-1 | Specific activity, SEQ ID NO: 1 [9, 18]: 144.5 mU.mg-^1 | activity of enzyme of SEQ ID NO:1 on the substrate with methylamine (in words) ([9]; methylamine as amine source): active | Specific activity, SEQ ID NO: 4 [10, 18]: 30.3 mU.mg-^1 | activity of enzyme of SEQ ID NO:4 on the substrate with methylamine (in words) ([10]; methylamine as amine source): active

Structure (SMILES): CC1CCCCC1=O (racemic) [2-methylcyclohexanone]
Specific activity, SEQ ID NO: 3 [1, 17]: 337.0 mU.mg^-1 | Specific activity, SEQ ID NO: 3 ([1]; 0.2 mM NADH (best of NADH/NADPH), listed as drawing 132): 337.0a mU.mg^-1 | Specific activity, SEQ ID NO: 1 [2, 15]: 175.3 mU.mg^-1 | Specific activity, SEQ ID NO: 1 ([2]; 0.2 mM NADPH (best of NADH/NADPH), listed as drawing 132): 175.3^b mU.mg^-1 | Specific activity, SEQ ID NO: 2 [3, 15]: 14.8^b mU.mg^-1 | specific activity of PheDH-AmDH K77S/N276L [4]: 19.3 mU·mg^−1

reduction of cyclic imine by enzyme of SEQ ID NO:1 (in words) [11]: able to catalyze | reduction of cyclic imine by enzyme of SEQ ID NO:3 (in words) [12]: able to catalyze | reduction of cyclic imine by enzyme of SEQ ID NO:2 (in words) [13]: able to catalyze | reduction of cyclic imine by enzyme of SEQ ID NO:4 (in words) [14]: able to catalyze
Structure (SMILES): CC1=NCCC1

Specific activity, SEQ ID NO: 3 [1, 15]: 57.8^b mU.mg^-1 | Specific activity, SEQ ID NO: 1 [2, 15]: 26.8^b mU.mg^-1 | Specific activity, SEQ ID NO: 2 [3, 15]: 72.9^b mU.mg^-1
Structure (SMILES): CCCCC=O [drawing 146]

Specific activity, SEQ ID NO: 4 [5]: 129.6^a mU.mg^-1 | Detection of the expected compound, SEQ ID NO: 4 [5]: d
Structure (SMILES): CCC(C)C=O (centres unmarked) [drawing 124]

Specific activity, SEQ ID NO: 3 [1, 15]: 28.1^b mU.mg^-1 | Specific activity, SEQ ID NO: 1 [2, 15]: 6.8^b mU.mg^-1
Structure (SMILES): CCCC(=O)CC

Specific activity, SEQ ID NO: 3 [1, 15]: 90.3^b mU.mg^-1 | Specific activity, SEQ ID NO: 1 [2, 15]: 65.2^b mU.mg^-1 | Specific activity, SEQ ID NO: 2 [3, 15]: 8.8^b mU.mg^-1
Structure (SMILES): CC1CCCC1=O (centres unmarked)

Structure (SMILES): O=C1CCCCC1 [drawing 120]
Specific activity, SEQ ID NO: 4 [5]: 9.82^a mU.mg^-1 | Detection of the expected compound, SEQ ID NO: 4 [5]: d
